Experimental data as given in PMC2248166, “Quantitative peptide binding motifs for 19 human and mouse MHC class I molecules derived using positional scanning combinatorial peptide libraries” (Immunome Research, 2008).

Key:
Format in all cases: binding
[1] = target: HLA A*3001 (Homo sapiens, UniProt P04439, D140H/D185E/E176W/F33S/G80R/H175R/K168Q/R138E/R41S); assay: biochemical
[2] = target: HLA A*3201 (Homo sapiens, UniProt P04439, A270S/D101S/D185E/E176V/E277Q/F133L/G103R/G107R/G231S/H175R/I121M/I218V/I322F/K168Q/L105A/L300P/L318F/M331R/P208A/P217A/Q94H/R106L/R138Q/S129P/T104I/T323A/T345S/V100E/V321M/V358M); assay: biochemical
[3] = target: HLA A*6802 (Homo sapiens, UniProt P04439, A269V/D140Y/D185E/E176V/E277Q/E87N/F33Y/G231S/I121R/I166T/I218V/L180W/L300P/L318F/N151K/P208A/P217A/Q86R/R138H/R169H/S129P/T345S/V36M)
[4] = target: HLA B*0801 (Homo sapiens, UniProt P01889, A93T/A95T/D138N/E176V/E187T/K202T/Q94N/R180D/S35A/V36M/Y33D/Y91F); assay: biochemical
[5] = target: HLA B*1501 (Homo sapiens, UniProt P01889, A329T/A93T/A95T/C349S/D201E/D98Y/E187L/E204Q/E69M/E70A/K202T/N87E/Q94N/R155S/R180W/S121R/S35A/S48A/V306I/V36M/Y140S/Y91S); assay: biochemical
[6] = target: HLA B*1503 (Homo sapiens, UniProt P01889, A329T/A93T/A95T/C349S/D201E/D98Y/E187L/E204Q/K202T/N87E/Q94N/R155S/R180L/S121R/S35A/V306I/V36M/Y140S/Y91S); assay: biochemical
[7] = target: HLA B*3501 (Homo sapiens, UniProt P01889, A329T/A93T/A95T/C349S/D201E/D98Y/E176V/E187L/E204Q/E69T/I218V/K202T/L119I/Q94N/R155S/R180L/S121R/S35A/S48A/T118I/V127L/V306I/V36M/Y140S/Y91F)
[8] = target: HLA B*5101 (Homo sapiens, UniProt P01889, A329T/A93T/A95T/C349S/D138N/D201E/D98Y/E187L/E204Q/E69T/G107R/I218V/K202T/L105A/L119W/N104I/Q94N/R106L/R155S/R180L/S101N/S121T/S35A/S48A/V306I/V36M/Y195H/Y91F)
[9] = target: HLA B*5301 (Homo sapiens, UniProt P01889, A329T/A93T/A95T/C349S/D201E/D98Y/E176V/E187L/E204Q/E69T/G107R/I218V/K202T/L105A/L119I/N104I/Q94N/R106L/R155S/R180L/S101N/S121R/S35A/S48A/T118I/V127L/V306I/V36M/Y140S/Y91F)
[10] = target: HLA B*5401 (Homo sapiens, UniProt P01889, A329T/C349S/D138N/D201E/E176V/E187T/E204Q/E69G/I76V/K202T/L119W/R155S/R180L/S121T/S35A/S48A/V127L/V306I/V36M/Y140L)
[11] = target: HLA B*5801 (Homo sapiens, UniProt P01889, A329T/C349S/D201E/D98Y/E176V/E187L/E204Q/E69T/G107R/I218V/I90N/K202T/L105A/L119I/N104I/N87E/Q89R/Q94S/R106L/R155S/R180L/R86G/S101N/S121R/S35A/S48A/T118I/V127L/V306I/V36M/Y140S/Y91M)
[12] = target: HLA B*5802 (Homo sapiens, UniProt P01889, A329T/C349S/D201E/D98Y/E176V/E187L/E204Q/E69T/G107R/I218V/I90N/K202T/L105A/N104I/N87E/Q89R/Q94S/R106L/R155S/R180L/R86G/S101N/S121W/S35A/S48A/V127L/V306I/V36M/Y140S/Y91M)
[13] = target: H-2 D^b (Mus musculus, UniProt P01899)
[14] = target: H-2 D^d (Mus musculus, UniProt P01900)
[15] = target: H-2 K^d (Mus musculus, UniProt P01902)
[16] = target: H-2 K^k (Mus musculus, UniProt P04223)
Sequence of H-2 K^k (P01887 21-119): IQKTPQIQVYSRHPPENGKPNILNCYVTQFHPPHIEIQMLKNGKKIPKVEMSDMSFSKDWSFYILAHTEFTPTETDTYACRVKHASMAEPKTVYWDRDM
Sequence of H-2 K^k (P04223 22-369): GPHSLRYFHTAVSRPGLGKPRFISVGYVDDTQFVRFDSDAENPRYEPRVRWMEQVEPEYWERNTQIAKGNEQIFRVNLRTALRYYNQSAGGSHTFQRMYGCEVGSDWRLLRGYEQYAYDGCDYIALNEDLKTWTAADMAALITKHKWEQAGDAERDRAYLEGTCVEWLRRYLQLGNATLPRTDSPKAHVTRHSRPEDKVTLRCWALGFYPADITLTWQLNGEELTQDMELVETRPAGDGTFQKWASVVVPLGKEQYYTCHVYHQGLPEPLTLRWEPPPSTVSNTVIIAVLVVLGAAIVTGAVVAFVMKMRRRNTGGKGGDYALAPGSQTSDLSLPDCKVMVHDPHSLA

Sequence of H-2 D^d (P01900 whole entry, looked up): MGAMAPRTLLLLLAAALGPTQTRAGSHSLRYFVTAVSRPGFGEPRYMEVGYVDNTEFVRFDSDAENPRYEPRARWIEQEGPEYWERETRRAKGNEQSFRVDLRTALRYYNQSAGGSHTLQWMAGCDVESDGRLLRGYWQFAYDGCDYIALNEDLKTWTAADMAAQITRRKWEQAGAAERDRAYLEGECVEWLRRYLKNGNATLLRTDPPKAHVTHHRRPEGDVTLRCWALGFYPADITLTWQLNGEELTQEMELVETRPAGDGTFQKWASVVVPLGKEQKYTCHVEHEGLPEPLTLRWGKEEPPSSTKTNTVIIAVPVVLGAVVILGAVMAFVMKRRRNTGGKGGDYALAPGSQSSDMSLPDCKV
Sequence of H-2 K^d (P01887 21-119): as the sequence (P01887 21-119) above
Sequence of H-2 K^d (P01902 22-368): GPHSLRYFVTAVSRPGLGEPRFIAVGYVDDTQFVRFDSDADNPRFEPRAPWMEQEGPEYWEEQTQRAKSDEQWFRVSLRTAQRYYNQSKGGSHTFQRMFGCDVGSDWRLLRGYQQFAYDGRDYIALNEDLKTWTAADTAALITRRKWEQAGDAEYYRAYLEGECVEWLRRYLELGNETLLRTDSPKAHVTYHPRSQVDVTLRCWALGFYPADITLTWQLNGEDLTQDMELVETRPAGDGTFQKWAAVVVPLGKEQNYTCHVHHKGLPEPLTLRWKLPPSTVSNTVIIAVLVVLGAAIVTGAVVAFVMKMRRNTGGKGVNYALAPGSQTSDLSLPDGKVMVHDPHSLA
Sequence of H-2 D^b (P01887 21-119): as the sequence (P01887 21-119) above
Sequence of H-2 D^b (P01899 25-362): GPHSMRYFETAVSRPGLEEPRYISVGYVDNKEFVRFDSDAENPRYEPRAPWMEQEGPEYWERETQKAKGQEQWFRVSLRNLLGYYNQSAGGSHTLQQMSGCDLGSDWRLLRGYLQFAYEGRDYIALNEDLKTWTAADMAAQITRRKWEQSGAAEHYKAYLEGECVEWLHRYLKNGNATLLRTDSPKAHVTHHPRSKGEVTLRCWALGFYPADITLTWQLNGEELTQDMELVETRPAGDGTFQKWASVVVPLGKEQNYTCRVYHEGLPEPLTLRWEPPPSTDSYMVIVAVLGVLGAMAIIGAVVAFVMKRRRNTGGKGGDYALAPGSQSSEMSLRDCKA

| Sequence | Normalized average relative binding affinity(ARB) [1] | Normalized average relative binding affinity(ARB) [2] | Normalized average relative binding affinity(ARB) [3] | Normalized average relative binding affinity(ARB) [4] | Normalized average relative binding affinity(ARB) [5] | Normalized average relative binding affinity(ARB) [6] | Normalized average relative binding affinity(ARB) [7] | Normalized average relative binding affinity(ARB) [8] | Normalized average relative binding affinity(ARB) [9] | Normalized average relative binding affinity(ARB) [10] | Normalized average relative binding affinity(ARB) [11] | Normalized average relative binding affinity(ARB) [12] | Normalized average relative binding affinity(ARB) [13] | Normalized average relative binding affinity(ARB) [14] | Normalized average relative binding affinity(ARB) [15] | Normalized average relative binding affinity(ARB) [16] |
| --- | --- | --- | --- | --- | --- | --- | --- | --- | --- | --- | --- | --- | --- | --- | --- | --- |
| XXXXXDXXX [3064.0103] | 0.016 | 0.16 | 0.69 | 0.0089 | 0.18 | 0.19 | 0.13 | 0.064 | 0.15 | 0.045 | 0.36 | 0.15 | 0.29 | 0.29 | 0.066 | 0.37 |
| XXXXXEXXX [3064.0104] | 0.059 | 0.35 | 0.75 | 0.023 | 0.30 | 0.40 | 0.21 | 0.12 | 0.21 | 0.065 | 0.80 | 0.14 | 0.43 | 0.31 | 0.083 | 0.18 |
| XXXXXFXXX [3064.0105] | 1.0 | 0.90 | 1.0 | 1.0 | 1.0 | 1.0 | 1.0 | 1.0 | 0.86 | 0.30 | 0.51 | 0.36 | 0.70 | 0.79 | 0.39 | 1.0 |
| XXXXXGXXX [3064.0106] | 0.18 | 0.22 | 0.30 | 0.025 | 0.35 | 0.68 | 0.33 | 0.29 | 0.22 | 0.14 | 0.31 | 0.16 | 0.76 | 0.48 | 0.30 | 0.60 |
| XXXXXHXXX [3064.0107] | 0.16 | 0.50 | 0.11 | 0.12 | 0.28 | 0.25 | 0.26 | 0.33 | 0.30 | 1.0 | 0.40 | 0.27 | 0.36 | 0.48 | 0.31 | 0.20 |
